Test results as given in ChEMBL document CHEMBL1132879, “High potent and selective arylpiperazine derivatives as ligands for the 5-HT1A receptor” (Bioorg Med Chem Lett, 2000).

Assays:
[1] = molecular target: Serotonin 1a (5-HT1a) receptor/Adrenergic receptor alpha-1 (Rattus norvegicus) (UniProt P15823+P23944+P43140+P19327); experiment: Selectivity for 5-HT1A serotonin over alpha-1-adrenergic receptors; type: protein assay
[2] = molecular target: T1, 5-hydroxytryptamine receptor 1A (Rattus norvegicus, UniProt P19327); experiment: Displacement of [3H]8-OH-DPAT from 5-hydroxytryptamine 1A receptor of rat hippocampus membranes; type: cell membranes, Membrane
T1 sequence (P19327 whole entry): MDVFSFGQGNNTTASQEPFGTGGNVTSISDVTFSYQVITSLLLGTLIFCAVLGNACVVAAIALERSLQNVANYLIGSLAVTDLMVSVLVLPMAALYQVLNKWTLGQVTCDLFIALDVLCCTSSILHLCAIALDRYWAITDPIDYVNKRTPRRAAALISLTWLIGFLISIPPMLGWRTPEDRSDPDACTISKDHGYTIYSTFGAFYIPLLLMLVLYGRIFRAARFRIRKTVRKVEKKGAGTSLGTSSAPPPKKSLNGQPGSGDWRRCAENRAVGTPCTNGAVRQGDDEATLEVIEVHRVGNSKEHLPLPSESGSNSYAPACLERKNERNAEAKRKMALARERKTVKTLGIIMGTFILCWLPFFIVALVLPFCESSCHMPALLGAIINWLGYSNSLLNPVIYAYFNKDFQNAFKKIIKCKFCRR

[3] = molecular target: T2, Adrenergic receptor alpha-1 (Rattus norvegicus, UniProt P15823+P23944+P43140); experiment: Displacement of [3H]prazosin from Alpha-1 adrenergic receptor of rat cortex membranes; type: cell membranes, Membrane
T2 sequence (P15823 whole entry): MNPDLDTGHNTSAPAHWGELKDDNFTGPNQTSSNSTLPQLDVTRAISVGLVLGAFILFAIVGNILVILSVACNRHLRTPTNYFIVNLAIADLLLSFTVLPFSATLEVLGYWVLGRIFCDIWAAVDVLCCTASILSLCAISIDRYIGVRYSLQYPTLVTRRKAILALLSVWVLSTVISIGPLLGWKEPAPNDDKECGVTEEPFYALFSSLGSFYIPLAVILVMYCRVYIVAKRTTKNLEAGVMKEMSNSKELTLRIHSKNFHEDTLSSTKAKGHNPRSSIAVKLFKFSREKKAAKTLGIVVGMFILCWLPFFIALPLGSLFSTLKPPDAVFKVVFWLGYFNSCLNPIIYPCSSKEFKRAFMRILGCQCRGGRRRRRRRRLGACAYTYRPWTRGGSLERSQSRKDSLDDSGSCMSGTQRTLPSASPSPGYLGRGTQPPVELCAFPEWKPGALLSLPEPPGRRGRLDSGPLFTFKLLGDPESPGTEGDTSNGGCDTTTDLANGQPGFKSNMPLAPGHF
T2 sequence (P23944 whole entry): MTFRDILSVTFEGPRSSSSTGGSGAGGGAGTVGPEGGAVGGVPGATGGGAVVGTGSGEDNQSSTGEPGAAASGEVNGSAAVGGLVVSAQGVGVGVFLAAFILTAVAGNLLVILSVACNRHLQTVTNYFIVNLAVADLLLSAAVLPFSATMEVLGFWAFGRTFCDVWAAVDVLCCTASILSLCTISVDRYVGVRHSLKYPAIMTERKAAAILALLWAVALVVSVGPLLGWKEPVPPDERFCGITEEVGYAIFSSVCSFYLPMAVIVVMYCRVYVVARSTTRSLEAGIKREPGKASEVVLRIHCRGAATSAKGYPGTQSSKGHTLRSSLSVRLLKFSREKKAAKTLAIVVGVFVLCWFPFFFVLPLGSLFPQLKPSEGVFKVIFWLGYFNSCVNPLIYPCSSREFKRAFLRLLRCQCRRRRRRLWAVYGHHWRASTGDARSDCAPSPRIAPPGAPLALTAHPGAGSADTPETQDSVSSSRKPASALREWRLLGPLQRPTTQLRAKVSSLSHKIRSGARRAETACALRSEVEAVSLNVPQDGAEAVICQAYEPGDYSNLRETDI
T2 sequence (P43140 whole entry): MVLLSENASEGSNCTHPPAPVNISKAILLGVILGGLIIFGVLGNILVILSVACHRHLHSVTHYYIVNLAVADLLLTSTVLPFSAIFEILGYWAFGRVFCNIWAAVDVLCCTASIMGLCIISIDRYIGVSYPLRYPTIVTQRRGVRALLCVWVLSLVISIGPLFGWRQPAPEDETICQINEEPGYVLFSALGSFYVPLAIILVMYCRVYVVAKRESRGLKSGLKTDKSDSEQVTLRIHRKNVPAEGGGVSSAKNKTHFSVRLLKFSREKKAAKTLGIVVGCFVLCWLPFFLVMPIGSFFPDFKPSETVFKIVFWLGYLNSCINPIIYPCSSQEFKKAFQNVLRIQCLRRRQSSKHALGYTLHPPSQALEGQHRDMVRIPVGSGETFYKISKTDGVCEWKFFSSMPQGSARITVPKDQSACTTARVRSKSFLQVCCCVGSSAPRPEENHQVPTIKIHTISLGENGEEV

Selectivity [1] | Ki [2] [nM] | Ki [3] [nM] | Compound
39 | 0.16 | 6.26 | COc1ccccc1N1CCN(CCCSc2nc3sc(C)c(C)c3c(=O)n2N)CC1
20 | 9.69 | 194.8 | CCc1cc2c(=O)n(N)c(SCCCN3CCN(c4ccccc4[N+](=O)[O-])CC3)nc2s1
115 | 0.19 | 21.96 | CCc1cc2c(=O)n(N)c(SCCCN3CCN(c4ccccc4OC)CC3)nc2s1
28 | 0.26 | 7.39 | COc1ccccc1N1CCN(CCCSc2nc3sc4c(c3c(=O)n2N)CCC4)CC1
3.8 | 0.65 | 2.48 | COc1ccccc1N1CCN(CCCSc2nc3sccc3c(=O)n2N)CC1
73 | 5.06 | 366.31 | Nn1c(SCCCN2CCN(c3ncccn3)CC2)nc2sccc2c1=O
14 | 1.4 | 19.65 | CCCc1cc2c(=O)n(N)c(SCCCN3CCN(c4ccccc4OC)CC3)nc2s1
4.6 | 6.84 | 31.5 | CCOc1ccccc1-c1nnc(SCCCN2CCN(c3ccccc3OC)CC2)s1
13 | 3 | 39.87 | Nn1c(SCCCN2CCN(c3ccccc3[N+](=O)[O-])CC2)nc2sccc2c1=O
4.4 | 2.45 | 10.8 | COc1ccccc1N1CCN(CCCSc2nc(N)c3c(C)c(C)sc3n2)CC1
53 | 1.46 | 123 | Cc1sc2nc(SCCCN3CCN(c4ccccc4[N+](=O)[O-])CC3)n(N)c(=O)c2c1C
3 | 135 | 437 | CCOc1ccccc1-c1nnc(SCCCN2CCN(c3ccccc3[N+](=O)[O-])CC2)s1
207 | 9.4 | 1946 | CCc1cc2c(=O)n(N)c(SCCCN3CCN(c4ncccn4)CC3)nc2s1
117 | 3.72 | 434 | Cc1sc2nc(SCCCN3CCN(c4ncccn4)CC3)n(N)c(=O)c2c1C
